Data reported in patent publication US11813305B2, “Endoplasmic reticulum stress as a predictive tool in cancer therapy and a combination therapy for the treatment of cancer” (IMMUNE SYSTEM KEY LTD., priority 2016, dated 2023).

What was measured:
[1] = test system: human TNBC cells (human MDA231); assay: Triple negative breast cancer tumors in mice; type: in vivo, nude mice; details: doxorubicin alone, once a week at 3 mg/kg, FIG. 14
Protocol: Therefore, 32 nude mice were inoculated subcutaneously (S.C.) with 9 million human TNBC cells (human MDA231, ATCC) per mouse. Cells were cultured as known in the art, for example, as described above. When the tumors exceeded a volume of 40 mm^3, the mice were randomly divided into five groups, as follows. The “Control” group (n=5) was treated with 5% mannitol; the “dTCApFs” group (n=5) was treated once a week with dTCApFs at 15 mg/kg; the “Dox” group (n=5) was treated once a week with doxorubicin (Sigma Aldrich) at 3 mg/kg; the “dTCApFs+Dox next day” (n=8) group was treated with dTCApFs at 15 mg/kg and 24 hours later also with doxorubicin, at 3 mg/kg; and the “dTCApFs+Dox same day” (n=9) group was treated with dTCApFs at 15 mg/kg and with doxorubicin at 3 mg/kg, on same day.

B16 cells = assay: Melanoma tumors in mice, dTCApFs and doxorubicin; type: in vivo, C57bl/6 mice; details: doxorubicin alone, once a week at 3 mg/kg, FIG. 17
Protocol: In order to examine the effect of a combination of dTCApFs and doxorubicin on melanoma tumor volume, the following experiments were performed in mice. C57bl/6 mice (28) were inoculated SC with 0.2 million B16 cells (ATCC) per mouse. B16 melanoma is a murine tumor cell line used for research as a model for human skin cancers. When tumors exceeded a volume of 50 mm^3, the mice were randomly divided into 4 groups, as follows. “Control” group (n=6) was treated with 5% mannitol; “dTCApFs” treated group (n=6) was treated once a week with dTCApFs (at 15 mg/kg); “Dox” treated group (n=6) was treated once a week with doxorubicin (at 3 mg/kg); and dTCApFs+Dox same day” group (n=10) was treated once a week with dTCApFs and doxorubicin (at 15 mg/kg and 3 mg/kg, respectively), when both agents were administered on the same day.

[2] = test system: human pancreatic cancer cells (BxPC3); assay: BrdU incorporation assay; type: cell-based; details: Taxol alone, 2 nM or 4 nM, FIG. 13B
Protocol: (§1) Cells were placed at 2,000 cells/well in the middle of a 96 well plate with 100 μl DMEM (life science 41965-039) and 10% fetal calf serum (FBS, Biological industries 14-127-1A) for 24 hours in an incubator at 37° C. with 5% CO2. The medium was then replaced to 200 μl DMEM with 2.5% FBS and Taxol (sigma T7402) at a final concentration of 2 nM or 4 nM in DMSO or dTCApFs (nextar ISK353-01 batch 351-01/1.68) at a final concentration of 25 μg/ml in DMSO. The medium in the control cells was replaced by DMEM and FBS as indicated above. The maximal concentration of DMSO in the cell wells was less than 0.5%. Four wells were used for each concentration.
(§2) Taxol- and dTCApFs-treated cells as well as the control cells were further incubated for 24 hours in the presence of BrdU as follows: 20 μl BrdU reagent (diluted 1:100 in DMEM supplemented with 2.5% FBS) was added to the cells and the plate was incubated 24 hours in 37° degrees incubator with 5% CO2. BrdU ELISA was performed according to the kit protocol (Millipore #2752).
(§3) Cells were placed at 2000 cells/well in the middle of a 96 well plate with 100 μl DMEM and 10% FBS for 24 hours in an incubator at 37° C. with 5% CO2. The medium was then replaced to 200 μl DMEM with 2.5% FBS and dTCApFs at a final concentration of 25 μg/ml (nextar ISK353-01 batch 351-01/1.68) in DMSO. The maximal concentration of DMSO in the cells wells was less than 0.5%. […]

[3] = test system: human ovarian cancer cells (OV90); assay: BrdU incorporation assay; type: cell-based; details: Taxol alone, 2 nM or 4 nM, FIG. 13A
Protocol: as §1, §2, §3

SMILES | tumor volume [1] | tumor volume (B16 cells) | cell viability (BrdU incorporation) [2] | cell viability (BrdU incorporation) [3]
COc1cccc2c1C(=O)c1c(O)c3c(c(O)c1C2=O)C[C@@](O)(C(=O)CO)C[C@@H]3O[C@H]1C[C@H](N)[C@H](O)[C@H](C)O1 [doxorubicin] | clear increase in tumor volume | tumor volume clearly increased |  | 
CC(=O)O[C@H]1C(=O)[C@@]2(C)[C@H]([C@H](OC(=O)c3ccccc3)[C@]3(O)C[C@H](OC(=O)[C@H](O)[C@@H](NC(=O)c4ccccc4)c4ccccc4)C(C)=C1C3(C)C)[C@]1(OC(C)=O)CO[C@@H]1C[C@@H]2O [Taxol, Paclitaxel] |  |  | no effect on cell viability was observed | no effect on cell viability was observed
